The record followed here is PMC8472793 (Microorganisms, 2021).

Assay [1] has as its target T1, Pro1 (γ-glutamyl kinase, GK) (Saccharomyces cerevisiae, UniProt P32264).
T1 sequence (P32264 1-428): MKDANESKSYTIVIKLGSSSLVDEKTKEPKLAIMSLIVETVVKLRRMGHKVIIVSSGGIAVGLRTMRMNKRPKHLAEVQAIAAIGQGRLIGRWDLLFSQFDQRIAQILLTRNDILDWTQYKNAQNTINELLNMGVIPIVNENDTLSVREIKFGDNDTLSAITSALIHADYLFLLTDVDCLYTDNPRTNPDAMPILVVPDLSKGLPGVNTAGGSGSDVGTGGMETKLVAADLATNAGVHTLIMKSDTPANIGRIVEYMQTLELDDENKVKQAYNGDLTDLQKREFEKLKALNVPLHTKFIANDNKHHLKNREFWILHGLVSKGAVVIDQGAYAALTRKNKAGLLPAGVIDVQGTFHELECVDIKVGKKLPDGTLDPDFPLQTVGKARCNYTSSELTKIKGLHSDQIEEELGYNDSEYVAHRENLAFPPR
Nature of the assay: PK/LDH-coupled ADP production, NADH oxidation at […] nm. It counts as biochemical. The following applies: 10 mM MgCl2, 100 mM HEPES-NaOH pH 7.4, 30 °C, no proline.

The target of assay [2] is Pro1 (γ-glutamyl kinase, GK) (Saccharomyces cerevisiae, UniProt P32264, I150T). The assay can be described thus: biochemical. The following applies: read-out: relative activity at 500 mM proline.
Chain of Pro1 (γ-glutamyl kinase, GK) (Saccharomyces cerevisiae, UniProt P32264, I150T) (P32264 whole entry I150T): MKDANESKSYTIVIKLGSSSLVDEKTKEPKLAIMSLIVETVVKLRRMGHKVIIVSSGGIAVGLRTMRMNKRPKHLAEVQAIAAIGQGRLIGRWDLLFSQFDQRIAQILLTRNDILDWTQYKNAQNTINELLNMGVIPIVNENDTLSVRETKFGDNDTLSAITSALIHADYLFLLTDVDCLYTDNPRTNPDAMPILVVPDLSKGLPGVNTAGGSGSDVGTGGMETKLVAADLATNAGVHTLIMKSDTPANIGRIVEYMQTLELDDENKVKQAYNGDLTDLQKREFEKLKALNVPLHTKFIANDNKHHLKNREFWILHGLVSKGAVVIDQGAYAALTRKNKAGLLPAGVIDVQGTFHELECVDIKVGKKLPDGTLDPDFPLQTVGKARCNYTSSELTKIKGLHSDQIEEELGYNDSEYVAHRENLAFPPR
Assay [3] deals with Pro1 (γ-glutamyl kinase, GK) (Saccharomyces cerevisiae, UniProt P32264, Q79H). Nature of the assay: biochemical. The following applies: read-out: relative activity at 500 mM proline.
Chain of Pro1 (γ-glutamyl kinase, GK) (Saccharomyces cerevisiae, UniProt P32264, Q79H) (P32264 whole entry Q79H): as the sequence (P32264 whole entry I150T) above, with Q79H, T150I counted along it
The target in assay [4] is Pro1 (γ-glutamyl kinase, GK) (Saccharomyces cerevisiae, UniProt P32264, D143A). The assay can be described thus: biochemical. The following applies: read-out: relative activity at 500 mM proline.
Chain of Pro1 (γ-glutamyl kinase, GK) (Saccharomyces cerevisiae, UniProt P32264, D143A) (P32264 whole entry D143A): as the sequence (P32264 whole entry I150T) above, with D143A, T150I counted along it

On to `Nc1ncnc2c1ncn2[C@@H]1O[C@H](COP(=O)(O)OP(=O)(O)OP(=O)(O)O)[C@@H](O)[C@H]1O` [ATP], for which the “PK/LDH-coupled ADP production, NADH oxidation at 340 nm” value in assay [1] (400 mM sodium glutamate, ATP 5 mM) is recorded as “GK activity was measured by the production of ADP in an enzyme-coupled system”. For `O=C(O)[C@@H]1CCCN1` [proline], the activity at 500000 µM is 50% in assay [2], about 96% in assay [3] and about 95% in assay [4]. Regarding `N[C@@H](CCC(=O)O)C(=O)O` [sodium glutamate], the “PK/LDH-coupled ADP production, NADH oxidation at 340 nm” value in assay [1] (5 mM ATP, glutamate 400 mM) is given as “sodium glutamate was added to initiate the enzymatic reaction”.
